Experimental data as given in ChEMBL document CHEMBL2203030, “Synthesis, characterization, antidepressant and antioxidant activity of novel piperamides bearing piperidine and piperazine analogues” (Bioorg Med Chem Lett, 2012).
In brackets after ≈: the same amount, converted by molar mass.

How the values were obtained:
Type in all cases: functional
Aspergillus flavus [1] = assay: Antimicrobial activity against Aspergillus flavus NCIM 524 at 100 ug/mL incubated for 48 hrs by agar disc diffusion method; details: NCIM 524, 48 h, read-out: IZ
Candida albicans [2] = assay: Antimicrobial activity against Candida albicans NCIM 3471 at 10 ug/disc incubated for 48 hrs by agar disc diffusion method; details: NCIM 3471, 48 h, read-out: IZ
Aspergillus flavus [3] = assay: Antimicrobial activity against Aspergillus flavus NCIM 524 at 10 ug/disc incubated for 48 hrs by agar disc diffusion method; details: NCIM 524, 48 h
Candida albicans [4] = assay: Antimicrobial activity against Candida albicans NCIM 3471 by broth dilution method

OC(Cn1cncn1)(Cn1cncn1)c1ccc(F)cc1F [FLUCONAZOLE]
zone of inhibition at 100 µg/mL (Aspergillus flavus [1]): 19 mm | zone of inhibition at 10 µg/disc (Candida albicans [2]): 16 mm | MIC (Aspergillus flavus [3]): 5 µg/mL (≈ 16.3 µM) | MIC (Candida albicans [4]): 5 µg/mL (≈ 16.3 µM)
